According to USRE48461E1, “Modulation of androgen receptor expression” (Ionis Pharmaceuticals, Inc., priority 2012, dated 2021):
Oligonucleotides are written 5' to 3', each unit as a sugar letter and its base; * is a phosphorothioate linkage, no mark a phosphodiester; rarer units and linkages stand in square brackets, end groups in braces. Plain capitals give the bases only. k = constrained ethyl (cEt); [5mC] = 5-methylcytosine; d = 2'-deoxy (DNA)

What was measured:
AR mRNA [1] = assay: Antisense inhibition of human AR in HuVEC cells, single concentration (electroporation, qRT-PCR RTS3559); assay type: cell-based; settings: Table 19, 500 nM oligonucleotide, electroporation, approximately 24 hours, relative to untreated control
Summary of the method: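 HuVEC cells electroporated with antisense oligonucleotides at a single concentration. AR mRNA quantified by qRT-PCR using human primer-probe set RTS3559 and normalised to total RNA content by RIBOGREEN.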

AR mRNA [2] = assay: Dose-dependent antisense inhibition of human AR in HuVEC cells (electroporation, qRT-PCR RTS3559, IC50); assay type: cell-based; settings: HuVEC, electroporation, approximately 16 hours
Summary of the method: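 HuVEC cells dosed with antisense oligonucleotides by electroporation and treated approximately 16 hours. AR mRNA quantified by real-time qPCR with primer probe set RTS3559 and normalised to total RNA by RIBOGREEN; IC50 from dose-response.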

Row | Substance | % inhibition (AR mRNA [1]) | percent inhibition of AR, 46.9 nM (AR mRNA [2]; Table 32) | percent inhibition of AR, 187.5 nM (AR mRNA [2]; Table 32) | percent inhibition of AR, 750.0 nM (AR mRNA [2]; Table 32) | percent inhibition of AR, 3000.0 nM (AR mRNA [2]; Table 32) | IC50 (AR mRNA [2]; Table 32) | percent inhibition of AR, 46.9 nM (AR mRNA [2]; Table 31) | percent inhibition of AR, 187.5 nM (AR mRNA [2]; Table 31) | percent inhibition of AR, 750.0 nM (AR mRNA [2]; Table 31) | percent inhibition of AR, 3000.0 nM (AR mRNA [2]; Table 31) | IC50 (AR mRNA [2]; Table 31)
1 | 583749 (antisense kA*kG*kG*dT*dG*d[5mC]*dT*dG*d[5mC]*dG*d[5mC]*dT*d[5mC]*kG*k[5mC]*kG) [compound 583749] | 36% | 34% | 40% | 75% | 87% | 170 nM |  |  |  |  | 
2 | 583759 (antisense kG*k[5mC]*kT*dG*dT*dT*d[5mC]*d[5mC]*dT*d[5mC]*dA*dT*d[5mC]*k[5mC]*kA*kG) [compound 583759] | 38% | 5% | 28% | 61% | 67% | 630 nM |  |  |  |  | 
3 | 583787 (antisense kG*kG*kT*dG*d[5mC]*dT*dG*dG*d[5mC]*d[5mC]*dT*d[5mC]*dG*k[5mC]*kT*k[5mC]) [compound 583787] | 37% | 15% | 31% | 66% | 74% | 430 nM |  |  |  |  | 
4 | 583789 (antisense kT*kG*k[5mC]*dA*dT*dG*dG*dT*dG*d[5mC]*dT*dG*dG*k[5mC]*k[5mC]*kT) [compound 583789] | 39% |  |  |  |  |  | 30% | 49% | 71% | 85% | 190 nM
5 | 583790 (antisense kG*kT*kT*dG*d[5mC]*dA*dT*dG*dG*dT*dG*d[5mC]*dT*kG*kG*k[5mC]) [compound 583790] | 39% |  |  |  |  |  | 17% | 42% | 65% | 81% | 320 nM
6 | 583795 (antisense kT*kG*k[5mC]*dT*dG*dT*dT*dG*d[5mC]*dT*dG*dA*dA*kG*kG*kA) [compound 583795] | 63% |  |  |  |  |  | 37% | 61% | 83% | 90% | 90 nM
7 | 583797 (antisense kT*k[5mC]*kG*dG*dA*dT*dA*d[5mC]*dT*dG*d[5mC]*dT*dT*k[5mC]*k[5mC]*kT) [compound 583797] | 35% | 21% | 50% | 74% | 82% | 220 nM |  |  |  |  | 
8 | 583799 (antisense kT*kG*k[5mC]*d[5mC]*dT*dT*d[5mC]*dG*dG*dA*dT*dA*d[5mC]*kT*kG*k[5mC]) [compound 583799] | 65% |  |  |  |  |  | 29% | 60% | 76% | 85% | 140 nM
9 | 583802 (antisense k[5mC]*kT*k[5mC]*dG*d[5mC]*dT*d[5mC]*dT*d[5mC]*d[5mC]*d[5mC]*dG*d[5mC]*kT*kG*k[5mC]) [compound 583802] | 37% | 17% | 25% | 47% | 60% | 1070 nM |  |  |  |  | 
10 | 583809 (antisense kT*kG*kT*d[5mC]*d[5mC]*dT*dT*dG*dG*dA*dG*dG*dA*kA*kG*kT) [compound 583809] | 45% |  |  |  |  |  | 13% | 37% | 68% | 81% | 360 nM
11 | 583818 (antisense kT*kG*kG*dT*d[5mC]*dG*dA*dA*dG*dT*dG*d[5mC]*d[5mC]*k[5mC]*k[5mC]*k[5mC]) [compound 583818] | 42% |  |  |  |  |  | 9% | 46% | 71% | 84% | 310 nM
12 | 583821 (k[5mC]*kA*kG*dA*dA*dA*dT*dG*dG*dT*d[5mC]*dG*dA*kA*kG*kT) [compound 583821] | 42% |  |  |  |  |  | 11% | 35% | 61% | 77% | 460 nM
